{"source": "patent US11964972B2", "about": "“Salt form” (CRT Pioneer Fund LP, priority 2018, dated 2024)", "key": {"[1]": {"target": "T1, MPS1 kinase (Homo sapiens, UniProt P33981)", "T1 sequence (P33981 1-857)": "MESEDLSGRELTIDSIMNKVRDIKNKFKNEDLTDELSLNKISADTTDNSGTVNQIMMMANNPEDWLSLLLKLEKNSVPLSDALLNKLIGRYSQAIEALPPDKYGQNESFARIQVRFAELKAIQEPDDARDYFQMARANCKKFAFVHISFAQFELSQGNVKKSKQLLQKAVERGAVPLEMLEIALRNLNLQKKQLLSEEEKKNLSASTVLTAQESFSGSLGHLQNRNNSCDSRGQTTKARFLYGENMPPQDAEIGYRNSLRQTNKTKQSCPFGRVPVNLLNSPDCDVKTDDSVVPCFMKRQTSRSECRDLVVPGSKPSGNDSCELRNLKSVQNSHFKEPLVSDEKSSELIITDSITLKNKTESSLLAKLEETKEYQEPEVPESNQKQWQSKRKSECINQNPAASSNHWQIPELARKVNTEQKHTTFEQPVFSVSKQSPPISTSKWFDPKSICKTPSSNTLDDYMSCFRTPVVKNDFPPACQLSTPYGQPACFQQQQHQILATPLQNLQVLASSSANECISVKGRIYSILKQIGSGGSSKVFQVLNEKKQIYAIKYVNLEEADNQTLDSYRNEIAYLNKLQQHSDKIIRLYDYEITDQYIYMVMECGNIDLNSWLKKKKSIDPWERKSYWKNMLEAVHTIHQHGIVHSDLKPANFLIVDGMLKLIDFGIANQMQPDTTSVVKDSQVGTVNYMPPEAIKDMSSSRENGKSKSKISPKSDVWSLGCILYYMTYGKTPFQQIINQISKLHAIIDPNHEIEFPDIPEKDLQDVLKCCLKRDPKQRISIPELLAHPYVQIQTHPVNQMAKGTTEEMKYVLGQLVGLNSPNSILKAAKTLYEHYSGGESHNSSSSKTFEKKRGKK", "settings": "background statement; WO 2014/037750; cited from earlier work"}, "[2]": {"test": "Recrystallisation studies (XRPD form classification)", "format": "physicochemical", "experimental": "The ditosylate salt of the compound of formula I (about 100 mg) was suspended in a designated volume of water miscible solvent at a given temperature, followed by the addition of one volume aliquots of pre-heated water until dissolution was achieved. The agitated mixtures were then cooled to 20° C. and agitated for about 16 hours. […] Solvent, solvent ratios and form classification of the isolated solids are detailed in Table 2."}, "[3]": {"settings": "for Solubility: Form A, 37° C., minimum of 23 hours; for pH: pH of the aqueous mixture", "experimental": "Crystalline ditosylate salt of the compound of formula I (about 40 mg, Form A) was suspended by gentle shaking in various aqueous buffers, biologically relevant media and formulation vehicles, 2×0.5 ml, at ambient temperature, ca 20° C. The mixtures were then heated to 37° C. with agitation for a minimum of 23 hours. The pH of the aqueous mixtures were also measured.\nTable 1 presents the pH measurements and the solubility in various dissolution media."}, "[4]": {"settings": "40° C. and 75% RH, 3 weeks", "experimental": "The ditosylate salt of the compound of formula I was stored at 40° C. and 75% RH in loose screw top vials for 3 weeks."}, "[5]": {"experimental": "The ability of samples studied to absorb moisture (or not) over a set of well-determined humidity ranges was assessed. Sorption isotherms were obtained using a Hiden Isochema moisture sorption analyser (model IGAsorp), controlled by IGAsorp Systems Software V6.50.48. The sample was maintained at a constant temperature (25° C.) by the instrument controls. The humidity was controlled by mixing streams of dry and wet nitrogen, with a total flow of 250 ml·min^−1. The instrument was verified for relative humidity content by measuring three calibrated Rotronic salt solutions (10-50-88%). The weight change of the sample was monitored as a function of humidity by a microbalance (accuracy +/−0.005 mg). A defined amount of sample (typically 10-15 mg powder) was placed in a tared mesh stainless steel basket under ambient conditions. A full experimental cycle typically consisted of three scans (desorption, sorption, and desorption) at a constant temperature (25° C.) and 10% RH intervals over a 0-90% range (60 minutes for each humidity level). Solids are then held post cycle at 0% RH for 2-3 hours and tested by XRPD and the remainder held at 90% RH for 2-3 hours and re-tested by XRPD."}, "[6]": {"settings": "for XRPD classification: 20/40° C. cycling", "experimental": "The equilibration of a solid in various solvents with temperature modulation is an accepted approach to investigate the form stability of a solid and the generation of alternate modifications, polymorphs/solvates of the material.\nThe ditosylate of the compound of formula I, 35 mg, was subjected to equilibration in various solvents with agitation at 20° C. for 90 hours, 40° C. for 3 hours, cooled to 20° C. over 3 hours, then heated to 40° C. for 16 hours and cooled to 20° C. The solvents were initially charged to the salts in aliquots, 0.25 ml, until dissolution was observed or a volume of 2 ml achieved. The solids were isolated by filtration and dried in vacuo at 50° C. for about 16 hours and then analysed by XRPD."}, "[7]": {"settings": "from 0 to 90% RH, 25° C., Form A"}}, "note": "Like-named read-outs stand apart in the source and are kept apart here.", "data": [{"smiles": "CCOc1cc(-c2nncn2C)ccc1Nc1ncc2cc(C)nc(NCC(C)(C)C)c2n1", "note": "[compound I, N2-(2-ethoxy-4-(4-methyl-4H-1,2,4-triazol-3-yl)phenyl)-6-methyl-N8-neopentylpyrido[3,4-d]pyrimidine-2,8-diamine]", "values": [{"measurement": "MPS1 kinase inhibitory activity", "setting": "[1]", "result": "potent MPS1 kinase inhibitory activity"}]}, {"smiles": "CCOc1cc(-c2nncn2C)ccc1Nc1ncc2cc(C)nc(NCC(C)(C)C)c2n1.Cc1ccc(S(=O)(=O)O)cc1.Cc1ccc(S(=O)(=O)O)cc1", "note": "[ditosylate Form C, ditosylate salt of N2-(2-ethoxy-4-(4-methyl-4H-1,2,4-triazol-3-yl)phenyl)-6-methyl-N8-neopentylpyrido[3,4-d]pyrimidine-2,8-diamine Form C]", "values": [{"measurement": "Form stability on thermal manipulation (XRPD, DSC)", "setting": "[2]; solid isolated from exclusively ethanol, FIG. 5, FIG. 6", "result": "metastable form that could be thermally converted to ditosylate Form A"}]}, {"smiles": "CCOc1cc(-c2nncn2C)ccc1Nc1ncc2cc(C)nc(NCC(C)(C)C)c2n1.Cc1ccc(S(=O)(=O)O)cc1.Cc1ccc(S(=O)(=O)O)cc1", "note": "[ditosylate salt of N2-(2-ethoxy-4-(4-methyl-4H-1,2,4-triazol-3-yl)phenyl)-6-methyl-N8-neopentylpyrido[3,4-d]pyrimidine-2,8-diamine]", "values": [{"measurement": "Solubility", "setting": "[3]; FaSSIF", "result": 14210, "unit": "µg/mL"}, {"measurement": "Solubility", "setting": "[3]; FeSSIF", "result": 1690, "unit": "µg/mL"}, {"measurement": "Solubility", "setting": "[3]; NaCl,0.9%/DMSO/Tween 20", "result": 12690, "unit": "µg/mL"}, {"measurement": "Solubility", "setting": "[3]; PEG300", "result": 2900, "unit": "µg/mL"}, {"measurement": "Solubility", "setting": "[3]; Phosphate buffer", "result": 2240, "unit": "µg/mL"}, {"measurement": "Solubility", "setting": "[3]; SFaGF", "result": 5720, "unit": "µg/mL"}, {"measurement": "Solubility", "setting": "[3]; Sodium chloride 0.9% w/v", "result": 9580, "unit": "µg/mL"}, {"measurement": "Solubility", "setting": "[3]; Water, deionised", "result": 5850, "unit": "µg/mL"}, {"measurement": "pH", "setting": "[3]; Acetate buffer", "result": 4.33}, {"measurement": "pH", "setting": "[3]; FaSSIF", "result": 2.41}, {"measurement": "pH", "setting": "[3]; FeSSIF", "result": 3.05}, {"measurement": "pH", "setting": "[3]; NaCl,0.9%/DMSO/Tween 20", "result": 1.97}, {"measurement": "pH", "setting": "[3]; Phosphate buffer", "result": 2.56}, {"measurement": "pH", "setting": "[3]; SFaGF", "result": 1.40}, {"measurement": "pH", "setting": "[3]; Sodium chloride 0.9% w/v", "result": 2.01}, {"measurement": "pH", "setting": "[3]; Water, deionised", "result": 2.13}, {"measurement": "Chemical degradation after storage", "setting": "[4]", "result": "no evidence of chemical degradation"}, {"measurement": "Hydration following storage", "setting": "[4]", "result": "no evidence"}, {"measurement": "Form modification after storage (XRPD)", "setting": "[4]; FIG. 4", "result": "No evidence of form modification"}, {"measurement": "Change in appearance after storage", "setting": "[4]; loose screw top vials", "result": "No change in appearance"}, {"measurement": "Form change post DVS and at the extremes of humidity (XRPD)", "setting": "[5]; 0% RH and 90% RH, FIG. 8", "result": "no evidence of form change"}, {"measurement": "DVS profile", "setting": "[5]; 0-90% RH, 25° C., Form A, FIG. 7", "result": "reversible water uptake over the humidity range and no hysteresis"}, {"measurement": "Water uptake/loss", "setting": "[5]; [7]", "result": 2.13, "unit": "%"}, {"measurement": "Water uptake/loss as equivalents of water", "setting": "[5]; [7]", "result": "about 1.0 equivalents of water"}, {"measurement": "XRPD Observations", "setting": "[2]; 2-butanone 8 volumes, water 1 volume, 80 ° C.", "result": "Form A"}, {"measurement": "XRPD Observations", "setting": "[2]; 2-propanol 8 volumes, water 1 volume, 80 ° C.", "result": "Form A"}, {"measurement": "XRPD Observations", "setting": "[2]; Acetone 10 volumes, water 2 volumes, 60 ° C.", "result": "Form A"}, {"measurement": "XRPD Observations", "setting": "[2]; Acetonitrile 2 volumes, water 1 volume, 60 ° C.", "result": "Form A"}, {"measurement": "XRPD Observations", "setting": "[2]; Ethanol 2 volumes, water 1 volume, 60 ° C.", "result": "Form A"}, {"measurement": "XRPD Observations", "setting": "[2]; Ethanol 15 volumes, no water, 80 ° C.", "result": "Form C"}, {"measurement": "XRPD classification", "setting": "[6]; equilibration in 1,4-Dioxane", "result": "Form A"}, {"measurement": "XRPD classification", "setting": "[6]; equilibration in 1-Butanol", "result": "Form A"}, {"measurement": "XRPD classification", "setting": "[6]; equilibration in 2-Chlorobutane", "result": "Form A"}, {"measurement": "XRPD classification", "setting": "[6]; equilibration in 2-Methyltetrahydrofuran", "result": "Form A"}, {"measurement": "XRPD classification", "setting": "[6]; equilibration in 2-Propanol", "result": "Form A"}, {"measurement": "XRPD classification", "setting": "[6]; equilibration in 3-Methyl-1-butanol", "result": "Form A"}, {"measurement": "XRPD classification", "setting": "[6]; equilibration in Acetonitrile", "result": "Form A"}, {"measurement": "XRPD classification", "setting": "[6]; equilibration in Chlorobenzene", "result": "Form A"}, {"measurement": "XRPD classification", "setting": "[6]; equilibration in Ethyl acetate", "result": "Form A"}, {"measurement": "XRPD classification", "setting": "[6]; equilibration in Heptane", "result": "Form A"}, {"measurement": "XRPD classification", "setting": "[6]; equilibration in Isopropyl acetate", "result": "Form A"}, {"measurement": "XRPD classification", "setting": "[6]; equilibration in Methanol", "result": "Form A"}, {"measurement": "XRPD classification", "setting": "[6]; equilibration in Methyl isobutyl ketone", "result": "Form A"}, {"measurement": "XRPD classification", "setting": "[6]; equilibration in Methylcyclohexane", "result": "Form A"}, {"measurement": "XRPD classification", "setting": "[6]; equilibration in Nitromethane", "result": "Form A"}, {"measurement": "XRPD classification", "setting": "[6]; equilibration in TBME", "result": "Form A"}, {"measurement": "XRPD classification", "setting": "[6]; equilibration in Toluene", "result": "Form A"}, {"measurement": "XRPD classification", "setting": "[6]; equilibration in Trifluorotoluene", "result": "Form A"}, {"measurement": "XRPD classification", "setting": "[6]; equilibration in Water", "result": "Form A"}, {"measurement": "XRPD classification", "setting": "[6]; equilibration in n-Butyl acetate", "result": "Form A"}, {"measurement": "Propensity to exhibit version or polymorphic variance", "setting": "[6]; summary of the polymorphism studies", "result": "remarkable lack of propensity to exhibit version or polymorphic variance"}]}]}
